From BindingDB's records for patent US20250353833 (Universiteit Antwerpen, 2025)

Assays:
Assay in all cases: Biochemical Evaluation
Dipeptidyl peptidase 2 = Dipeptidyl peptidase 2 (Homo sapiens, UniProt Q9UHL4)
Source text: (§1) Table 1 and 2: The compounds were biochemically evaluated against a panel consisting of all enzymatically active DASH enzymes (DPP4, DPP8, DPP9, DPP2, FAP) and PREP.

Prolyl endopeptidase = target: T1, Prolyl endopeptidase (Homo sapiens, UniProt P48147)
T1 sequence (P48147 whole entry): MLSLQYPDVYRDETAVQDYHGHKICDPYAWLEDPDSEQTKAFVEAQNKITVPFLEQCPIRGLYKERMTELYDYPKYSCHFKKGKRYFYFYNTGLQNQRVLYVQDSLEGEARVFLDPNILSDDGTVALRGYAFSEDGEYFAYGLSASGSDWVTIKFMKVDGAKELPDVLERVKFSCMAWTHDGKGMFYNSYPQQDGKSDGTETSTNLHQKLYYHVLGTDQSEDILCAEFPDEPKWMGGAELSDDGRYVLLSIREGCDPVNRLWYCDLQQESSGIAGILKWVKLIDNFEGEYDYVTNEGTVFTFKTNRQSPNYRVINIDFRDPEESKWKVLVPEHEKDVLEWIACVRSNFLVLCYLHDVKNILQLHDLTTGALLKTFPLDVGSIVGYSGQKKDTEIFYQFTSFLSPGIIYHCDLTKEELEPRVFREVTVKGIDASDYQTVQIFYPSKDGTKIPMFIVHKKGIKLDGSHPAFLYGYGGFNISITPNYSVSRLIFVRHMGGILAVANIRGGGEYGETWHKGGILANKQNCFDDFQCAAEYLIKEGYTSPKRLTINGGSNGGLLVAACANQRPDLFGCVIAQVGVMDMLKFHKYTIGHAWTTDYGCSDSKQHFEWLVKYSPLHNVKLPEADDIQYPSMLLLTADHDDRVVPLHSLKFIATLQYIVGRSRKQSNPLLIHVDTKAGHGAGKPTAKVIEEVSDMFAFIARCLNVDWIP
Source text: as §1

Prolyl endopeptidase FAP = target: T2, Prolyl endopeptidase FAP (Homo sapiens, UniProt Q12884)
T2 sequence (Q12884 whole entry): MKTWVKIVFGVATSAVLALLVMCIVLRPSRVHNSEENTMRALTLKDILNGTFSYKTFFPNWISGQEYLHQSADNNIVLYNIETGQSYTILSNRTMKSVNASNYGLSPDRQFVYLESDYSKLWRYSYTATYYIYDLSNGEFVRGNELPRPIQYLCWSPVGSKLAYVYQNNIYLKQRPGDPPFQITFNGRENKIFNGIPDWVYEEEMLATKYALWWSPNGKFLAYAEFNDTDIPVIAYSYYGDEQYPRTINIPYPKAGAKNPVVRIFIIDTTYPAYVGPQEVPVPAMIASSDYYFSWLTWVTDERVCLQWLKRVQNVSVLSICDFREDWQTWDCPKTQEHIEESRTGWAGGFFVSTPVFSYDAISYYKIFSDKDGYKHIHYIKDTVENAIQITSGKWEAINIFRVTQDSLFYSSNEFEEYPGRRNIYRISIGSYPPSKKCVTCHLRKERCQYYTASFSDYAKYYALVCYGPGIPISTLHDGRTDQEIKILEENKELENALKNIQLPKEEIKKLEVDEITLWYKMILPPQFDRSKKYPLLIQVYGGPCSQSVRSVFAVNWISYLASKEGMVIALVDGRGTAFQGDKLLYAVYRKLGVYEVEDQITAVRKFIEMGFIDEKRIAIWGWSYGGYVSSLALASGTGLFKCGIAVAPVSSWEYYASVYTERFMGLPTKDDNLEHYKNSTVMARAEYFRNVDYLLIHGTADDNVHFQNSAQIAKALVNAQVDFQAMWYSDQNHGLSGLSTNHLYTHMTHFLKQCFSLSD
Source text: as §1

IC50 (Dipeptidyl peptidase 2): > 5 µM | IC50 (Prolyl endopeptidase): > 10 µM | IC50 (Prolyl endopeptidase FAP): > 10 µM
SMILES: CC(C)(C)OC(=O)NC12CC3CC(CC(N)(C3)C1)C2 [US20250353833, Compound 4]
